These results are taken from patent publication US20230218754A1, “PHARMACEUTICAL COMPOSITIONS WITH ANTI-RANKL ANTIBODIES, CALCIUM AND VITAMIN D” (priority 2016, published 2023).

The conditions of data set [1]: background statement; cited from earlier work.
Data set [2] is described as follows: chair-rising test (standing up test) in osteoporosis patients. In kind it is in vivo, human. The conditions noted are these: 60 mg denosumab (Prolia) + 500 mg calcium + 1000 IE vitamin D3. The method, then: The so-called “chair-rising test” (standing up test) was carried out in 3 patients.
The chair-rising test (standing up test) allows a determination to made concerning the strength and falling risk of the test person. The test person is asked to stand up and sit back down five times as quickly as possible with his/her arms folded over his/her chest and without using them from a chair of ordinary height (approximately 46 cm seat height). If the patient is not capable of doing this, the number of successful completions are counted rather than the seconds. If the patient takes longer than 10-11 seconds, it must be assumed that he/she is at increased risk of falling.
The improvement is given in the right column in %.

A short description of data set [3]: serum calcium level in patients under denosumab plus calcium and vitamin D3. Format: in vivo, human. The method, then: The following data from an oncological patient (prostate cancer) in Table 5 show the serum levels of calcium and vitamin D3 in administration of 120 mg of denosumab (anti-RANKL antibody, Xgeva) every 4 weeks and the oral administration of 500 mg of calcium daily and 1000 IU of vitamin D3 daily.
In Table 5, the patient received 120 mg of denosumab every 4 weeks and 500 mg of calcium and 1000 IU of vitamin D3:
The following data from osteoporosis patients in Table 6 show the serum values of calcium and vitamin D3 in administration of 60 mg of anti-RANKL antibody/denosumab (Prolia) every 6 months and the oral administration of 500 mg of calcium daily and 1000 IU of vitamin D3 daily.
In Table 6, the osteoporosis patients received 60 mg of denosumab every 6 months, 500 mg of calcium daily, and 1000 IU of vitamin D3, also daily: […]

Data set [4] in a line: 25(OH) vitamin D3 serum concentration under vitamin D maintenance dose in patients with vitamin D deficiency. In kind it is in vivo, human. An excerpt:
Vitamin D deficiency is a common diagnosis in osteology practice. […] The maintenance dose was 1000 IU of vitamin D daily.

Test in data set [5]: as above
Format: in vivo, human. The conditions noted are these: maintenance dose of 400 IU of vitamin D daily.

Several values for one entry are separate records, joined by “and”; a condition that tells them apart may be missing. Equal values may be shown once.

For the compound `C=C1/C(=C\C=C2/CCC[C@]3(C)[C@@H]([C@H](C)CCCC(C)(C)O)CC[C@@H]23)C[C@@H](O)C[C@@H]1O` [calcitriol, 1α,25-dihydroxycholecalciferol], the “time to maximum serum concentration after intake” value in data set [1] is reported as “three to six”.

For the compound “denosumab: anti-RANKL antibody approved as a medicinal preparation; marketed by Amgen as Prolia (60 mg) and Xgeva (120 mg)”, the “Chair Rising time repeated 6 months later” value in data set [2] (osteoporosis patients, 6 months after beginning therapy) is 8 s and 10 s. The “reduction of the risk of falling” value in data set [2] (three osteoporosis patients, 6 months) is recorded as 11-29%. For the same compound, the “Calcium (serum)” value is 2.11 mmol/L in data set [3] (oncological patient (prostate cancer), 120 mg denosumab (Xgeva) every 4 weeks + 500 mg calcium and 1000 IU vitamin D3 daily, after 13 weeks); 2.12 mmol/L in data set [3] (oncological patient (prostate cancer), 120 mg denosumab (Xgeva) every 4 weeks + 500 mg calcium and 1000 IU vitamin D3 daily, after 26 weeks); 2.34 mmol/L and 2.32 mmol/L and 2.3 mmol/L and 2.37 mmol/L in data set [3] (osteoporosis patients, 60 mg denosumab (Prolia) every 6 months + 500 mg calcium and 1000 IU vitamin D3 daily, after 13 weeks); 2.32 mmol/L and 2.45 mmol/L in data set [3] (osteoporosis patients, 60 mg denosumab (Prolia) every 6 months + 500 mg calcium and 1000 IU vitamin D3 daily, after 26 weeks).

vitamin D: in data set [4] (individual female patients with initial vitamin D deficiency, 1000 IU vitamin D daily), the “25(OH) vitamin D3 serum concentration at maintenance dose of 1000 IU of vitamin D daily” value is 29.2 ng/mL and 30.4 ng/mL and 28.8 ng/mL and 23.7 ng/mL and 23.2 ng/mL and 30.5 ng/mL and 25.5 ng/mL and 23.4 ng/mL. In data set [4] (maintenance dose of 1000 IU of vitamin D daily), the “maintaining the vitamin D level in the normal range” value is “suitable”. The “maintaining the vitamin D concentration at the standard level” value in data set [5] is recorded as “not sufficient”.
